Results taken from PubChem BioAssay AID2060490 (Molecular Pharmacology Branch, DTP, NCI, 2025).

Test system: 885512-296-R-J2-PDC complex spheroid viability
Assay: Anticancer human tumor 885512-296-R-J2-PDC patient-derived breast carcinoma cell line growth inhibition [GQUAD]
Conditions: for IC50: curve of first compound; for viability, T/C: stronger effect = lower value
From the text: DNA G-quadruplex Stabilizer Agents in Combinations in Complex Spheroids
A high-throughput screen of multi-cell type tumor spheroids was designed to identify active combinations of DNA G-quadruplex stabilizer agents and targeted small molecules. Complex spheroids include a stromal component modeled by human endothelial cells (HUVEC) and fibroblasts modeled by human mesenchymal stem cells (MSCs). The concentration ranges selected for each drug and investigational agent were based upon clinically achievable concentrations if the clinical Cmax of the agent was known.
Compounds. The drugs and investigational agents: pidnarulex (CX-5461; NSC782164), APTO-253 (NSC789042), BRACO-19 (NSC847499), peposertib (NSC802822), ceralasertib (NSC780249), elimusertib (NSC800525), camonsertib (NSC841442), AZD-1390 (NSC803789), olaparib (NSC753686), talazoparib (NSC767125), ART-558 (NSC835418), sotorasib (NSC818433), MRTX-1133 (NSC836407), SN-38 (NSC673596), topotecan (NSC609699), etoposide (NSC141540), doxorubicin (NSC123127), gemcitabine (NSC613327), 5-fluorouracil (NSC19893), paclitaxel (NSC125973), vemurafenib (NSC761431), panobinostat (NSC761190), R-306465 (JNJ-16241199; NSC773264), adavosertib (NSC754352), TP-3654 (NSC805149), carboplatin (NSC241240), KSQ-4279 (NSC840948), and staurosporine (NSC755774) were obtained from the National Cancer Institute (NCI) Developmental Therapeutics Program Chemical Repository (34). The FDA-approved anticancer drug set is available from the NCI Developmental Therapeutics Program. […] The stock solutions were prepared in dimethyl sulfoxide (DMSO, Sigma-Aldrich, St. Louis, MO, cat. D2650) at 800-fold the tested concentration and stored at -70 degrees C prior to their use. All drugs and investigational agents were tested over a range starting from a high concentration at or near the clinical Cmax and decreasing in half-log increments. If the clinical Cmax for an agent had not been determined, the highest concentration tested was 10 microM.
2.3 Cell Culture. All cells were maintained in an incubator at 37 degrees C and 5% CO2 with 95% humidity. The PDC lines were cultured according to standard operating procedures established by the NCI PDMR. All PDCs were thawed and cultured in Matrigel-coated flasks prepared with a working solution of 1X Ham's F-12 nutrient mix, without supplementation (Invitrogen, cat. 11765054), 100 U/mL penicillin-streptomycin (Invitrogen, cat. 15140122), and 2.5% Matrigel (Corning Inc., cat. 354248) for the first three passages. The 857933-349-R-J2-PDC line was cultured in 6C/Colon 1B media, which includes advanced DMEM/F-12 (Thermo Fisher Scientific, cat. 12634028), 10 mM HEPES (Thermo Fisher Scientific, cat. 15630080), 1X GlutaMAX supplement (Thermo Fisher Scientific, cat. 35050061), 0.1 mg/mL primocin (InvivoGen, cat. ant-pm-2), 10% defined fetal bovine serum, heat inactivated (HyClone Laboratories Inc., cat. SH30070.03HI), 50% L-WRN conditioned media (ATCC, cat. CRL-3276), 1.25 mM N-Acetyl-L-cysteine (Sigma-Aldrich, cat. A9165), 10 mM nicotinamide (Sigma-Aldrich, cat. N0636), 1X B-27 supplement (Thermo Fisher Scientific, cat. 17504044), 1X N-2 supplement (Thermo Fisher Scientific, cat. 17502048), 10 microM Y-27632 dihydrochloride (Tocris Bioscience, cat. 1254), and 50 ng/mL human EGF recombinant protein (Thermo Fisher Scientific, cat. PHG0311). The 485176-168-R4-J1-PDC line was cultured in Panc media, which includes all 6C/Colon 1B media components plus 100 ng/mL human FGF-10 (Thermo Fisher Scientific, cat. 100-26), 500 nM SB-431542 (Selleckchem, cat. S1067), and gastrin (Tocris, cat. 3006).
[…]

[1] = second compound 0.0316 µM, first compound 0.0316 µM
[2] = second compound 0.0316 µM, first compound 0.1 µM
[3] = second compound 0.0316 µM, first compound 0.316 µM
[4] = second compound 0.0316 µM, first compound 1 µM
[5] = second compound 0.0316 µM, first compound 3.16 µM
[6] = second compound 0.0316 µM, first compound 10 µM
[7] = second compound 0.1 µM, first compound 0.0316 µM
[8] = second compound 0.1 µM, first compound 0.1 µM
[9] = second compound 0.1 µM, first compound 0.316 µM
[10] = second compound 0.1 µM, first compound 1 µM
[11] = second compound 0.1 µM, first compound 3.16 µM
[12] = second compound 0.1 µM, first compound 10 µM
[13] = second compound 0.316 µM, first compound 0.0316 µM
[14] = second compound 0.316 µM, first compound 0.1 µM
[15] = second compound 0.316 µM, first compound 0.316 µM
[16] = second compound 0.316 µM, first compound 1 µM
[17] = second compound 0.316 µM, first compound 3.16 µM
[18] = second compound 0.316 µM, first compound 10 µM
[19] = second compound 1 µM, first compound 0.0316 µM
[20] = second compound 1 µM, first compound 0.1 µM
[21] = second compound 1 µM, first compound 0.316 µM
[22] = second compound 1 µM, first compound 1 µM
[23] = second compound 1 µM, first compound 3.16 µM
[24] = second compound 1 µM, first compound 10 µM
[25] = second compound 3.16 µM, first compound 0.0316 µM
[26] = second compound 3.16 µM, first compound 0.1 µM
[27] = second compound 3.16 µM, first compound 0.316 µM
[28] = second compound 3.16 µM, first compound 1 µM
[29] = second compound 3.16 µM, first compound 3.16 µM
[30] = second compound 3.16 µM, first compound 10 µM
[31] = second compound 10 µM, first compound 0.0316 µM
[32] = second compound 10 µM, first compound 0.1 µM
[33] = second compound 10 µM, first compound 0.316 µM
[34] = second compound 10 µM, first compound 1 µM
[35] = second compound 10 µM, first compound 3.16 µM
[36] = second compound 10 µM, first compound 10 µM
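Further: spheroids exposed to the compounds for one week.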
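Wherever viability, T/C is given: percent of tumor spheroid viability relative to DMSO vehicle control wells.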

`CCCS(=O)(=O)Nc1ccc(F)c(C(=O)c2c[nH]c3ncc(-c4ccc(Cl)cc4)cc23)c1F` + Cc1cnc(CNC(=O)c2c(=O)c3ccc(N4CCCN(C)CC4)nc3n3c2sc2ccccc23)cn1 gave an IC50 (second compound 0.0316 µM) of over 10000 nM, an IC50 (second compound 0.1 µM) of over 10000 nM and an IC50 (second compound 0.316 µM) of under 31.6 nM. The IC50 (second compound 1 µM) was under 31.6 nM, the IC50 (second compound 3.16 µM) was under 31.6 nM and the IC50 (second compound 10 µM) was under 31.6 nM. For the same molecule, the viability, T/C [1] was 97.5%, the viability, T/C [2] was 93.9% and the viability, T/C [3] was 97.1%. It also gave a viability, T/C [4] of 91.7%, a viability, T/C [5] of 102% and a viability, T/C [6] of 58.8%. For the same molecule, the viability, T/C [7] was 65.8%, the viability, T/C [8] was 61% and the viability, T/C [9] was 64.3%. The viability, T/C [10] was 67.6%, the viability, T/C [11] was 71.2% and the viability, T/C [12] was 41.5%. The viability, T/C [13] was 30.3%, the viability, T/C [14] was 24.9% and the viability, T/C [15] was 22.9%. For the same molecule, the viability, T/C [16] was 34.2%, the viability, T/C [17] was 45.6% and the viability, T/C [18] was 25.4%. It also gave a viability, T/C [19] of 19.2%, a viability, T/C [20] of 26% and a viability, T/C [21] of 26.4%. The viability, T/C [22] was 33.6%, the viability, T/C [23] was 36% and the viability, T/C [24] was 22.7%. For the same molecule, the viability, T/C [25] was 20.9%, the viability, T/C [26] was 29.3% and the viability, T/C [27] was 26.5%. The viability, T/C [28] was 25.8%, the viability, T/C [29] was 24.5% and the viability, T/C [30] was 0.29%. For the same molecule, the viability, T/C [31] was 0.15%, the viability, T/C [32] was 0.16% and the viability, T/C [33] was 0.18%. The viability, T/C [34] was 0.17%, the viability, T/C [35] was 0.15% and the viability, T/C [36] was 0.18%.
`O=c1[nH]cc(F)c(=O)[nH]1` + Cc1cnc(CNC(=O)c2c(=O)c3ccc(N4CCCN(C)CC4)nc3n3c2sc2ccccc23)cn1 was tested, and the IC50 (second compound 0.0316 µM) was over 10000 nM, the IC50 (second compound 0.1 µM) was over 10000 nM and the IC50 (second compound 0.316 µM) was under 31.6 nM. For the same molecule, the IC50 (second compound 1 µM) was under 31.6 nM, the IC50 (second compound 3.16 µM) was under 31.6 nM and the IC50 (second compound 10 µM) was under 31.6 nM. The viability, T/C [1] was 90.9%, the viability, T/C [2] was 75.9% and the viability, T/C [3] was 87.1%. It also gave a viability, T/C [4] of 69.5%, a viability, T/C [5] of 59.4% and a viability, T/C [6] of 52.1%. For the same molecule, the viability, T/C [7] was 68.3%, the viability, T/C [8] was 70.2% and the viability, T/C [9] was 54.4%. It also gave a viability, T/C [10] of 66.3%, a viability, T/C [11] of 51.1% and a viability, T/C [12] of 56.8%. The viability, T/C [13] was 30%, the viability, T/C [14] was 27.2% and the viability, T/C [15] was 23.6%. It also gave a viability, T/C [16] of 19.8%, a viability, T/C [17] of 38% and a viability, T/C [18] of 36.1%. For the same molecule, the viability, T/C [19] was 29.9%, the viability, T/C [20] was 28.4% and the viability, T/C [21] was 26.4%. The viability, T/C [22] was 28%, the viability, T/C [23] was 23.1% and the viability, T/C [24] was 27.6%. For the same molecule, the viability, T/C [25] was 23.5%, the viability, T/C [26] was 27.8% and the viability, T/C [27] was 22.4%. The viability, T/C [28] was 20.4%, the viability, T/C [29] was 29.4% and the viability, T/C [30] was 24.1%. For the same molecule, the viability, T/C [31] was 0.1%, the viability, T/C [32] was 0.16% and the viability, T/C [33] was 0.21%. It also gave a viability, T/C [34] of 0.13%, a viability, T/C [35] of 0.19% and a viability, T/C [36] of 0.16%.
